Source: PubChem BioAssay (NCI)
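Dose response: 5 concentrations. Exposure: 48 h. Format: 96-well plates. Endpoint: linear interpolation; highest concentration if not reached. At the GI50, growth is halved. TGI denotes the concentration required for complete inhibition of growth.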

Legend:
Test in all cases: NCI anticancer screen, dose series, 48 h
ACHN renal = test system: ACHN renal
OVCAR-5 ovarian = test system: OVCAR-5 ovarian
NCI-H226 lung = test system: NCI-H226 lung
SNB-19 CNS = test system: SNB-19 CNS
BT-549 breast = test system: BT-549 breast
NCI/ADR-RES ovarian = test system: NCI/ADR-RES ovarian
SK-OV-3 ovarian = test system: SK-OV-3 ovarian
A498 renal = test system: A498 renal
MALME-3M melanoma = test system: MALME-3M melanoma
SF-295 CNS = test system: SF-295 CNS
HCT-116 colon = test system: HCT-116 colon
SF-268 CNS = test system: SF-268 CNS
SW-620 colon = test system: SW-620 colon
A549 NSCLC = test system: A549 NSCLC
COLO 205 colon = test system: COLO 205 colon
HCT-15 colon = test system: HCT-15 colon
DU-145 prostate = test system: DU-145 prostate
NCI-H460 lung = test system: NCI-H460 lung
SK-MEL-28 melanoma = test system: SK-MEL-28 melanoma
HOP-62 NSCLC = test system: HOP-62 NSCLC
KM12 colon = test system: KM12 colon
UACC-257 melanoma = test system: UACC-257 melanoma
SK-MEL-5 melanoma = test system: SK-MEL-5 melanoma
K-562 leukemia = test system: K-562 leukemia
PC-3 prostate = test system: PC-3 prostate
RPMI-8226 leukemia = test system: RPMI-8226 leukemia
RXF 393 renal = test system: RXF 393 renal
NCI-H23 lung = test system: NCI-H23 lung
M14 melanoma = test system: M14 melanoma
SN12C renal = test system: SN12C renal
LOX IMVI melanoma = test system: LOX IMVI melanoma
SR leukemia = test system: SR leukemia
T-47D breast = test system: T-47D breast
IGROV1 ovarian = test system: IGROV1 ovarian
UO-31 renal = test system: UO-31 renal
NCI-H522 lung = test system: NCI-H522 lung
OVCAR-8 ovarian = test system: OVCAR-8 ovarian
MDA-MB-435 = test system: MDA-MB-435
TK-10 renal = test system: TK-10 renal
CAKI-1 renal = test system: CAKI-1 renal
MCF7 breast = test system: MCF7 breast
HL-60(TB) leukemia = test system: HL-60(TB) leukemia
SK-MEL-2 melanoma = test system: SK-MEL-2 melanoma
OVCAR-3 ovarian = test system: OVCAR-3 ovarian
SF-539 CNS = test system: SF-539 CNS
MDA-MB-231 breast = test system: MDA-MB-231 breast
HS 578T breast = test system: HS 578T breast
OVCAR-4 ovarian = test system: OVCAR-4 ovarian
MOLT-4 leukemia = test system: MOLT-4 leukemia
UACC-62 melanoma = test system: UACC-62 melanoma
HOP-92 NSCLC = test system: HOP-92 NSCLC
HCC-2998 colon = test system: HCC-2998 colon
SNB-75 CNS = test system: SNB-75 CNS
U251 CNS = test system: U251 CNS
786-0 renal = test system: 786-0 renal
CCRF-CEM leukemia = test system: CCRF-CEM leukemia
HT29 colon = test system: HT29 colon

Question: How did the GI50 (ACHN renal) turn out when Nc1c(C(=O)Nc2cccc(C(F)(F)F)c2)sc2nc3c(cc12)C(O)CCC3 (centres undefined) was run?
Answer: 10.1 µM

Question: What about the TGI (ACHN renal) of the same compound?
Answer: > 68.4 µM

Question: And the GI50 (OVCAR-5 ovarian)?
Answer: > 50 µM

Question: And the TGI (OVCAR-5 ovarian)?
Answer: > 100 µM

Question: What about the GI50 (NCI-H226 lung) of the same compound?
Answer: 10.8 µM

Question: What about the TGI (NCI-H226 lung) of the same compound?
Answer: > 95.5 µM

Question: And the GI50 (SNB-19 CNS)?
Answer: 14.4 µM

Question: And the TGI (SNB-19 CNS)?
Answer: > 100 µM

Question: What about the GI50 (BT-549 breast) of the same compound?
Answer: 7.27 µM

Question: And the TGI (BT-549 breast)?
Answer: > 100 µM

Question: And the GI50 (NCI/ADR-RES ovarian)?
Answer: 6.14 µM

Question: What about the TGI (NCI/ADR-RES ovarian) of the same compound?
Answer: > 100 µM

Question: What about the GI50 (SK-OV-3 ovarian) of the same compound?
Answer: 15.3 µM

Question: And the TGI (SK-OV-3 ovarian)?
Answer: > 100 µM

Question: What about the GI50 (A498 renal) of the same compound?
Answer: 0.872 µM

Question: What about the TGI (A498 renal) of the same compound?
Answer: 27.7 µM

Question: And the GI50 (MALME-3M melanoma)?
Answer: 6.72 µM

Question: What about the TGI (MALME-3M melanoma) of the same compound?
Answer: > 68 µM

Question: What about the GI50 (SF-295 CNS) of the same compound?
Answer: 3.07 µM

Question: And the TGI (SF-295 CNS)?
Answer: 38.4 µM

Question: And the GI50 (HCT-116 colon)?
Answer: 3.02 µM

Question: And the TGI (HCT-116 colon)?
Answer: > 100 µM

Question: And the GI50 (SF-268 CNS)?
Answer: 6.07 µM

Question: What about the TGI (SF-268 CNS) of the same compound?
Answer: > 67.1 µM

Question: What about the GI50 (SW-620 colon) of the same compound?
Answer: 2.73 µM

Question: And the TGI (SW-620 colon)?
Answer: > 100 µM

Question: And the GI50 (A549 NSCLC)?
Answer: 6.85 µM

Question: And the TGI (A549 NSCLC)?
Answer: > 79.4 µM

Question: And the GI50 (COLO 205 colon)?
Answer: 3.79 µM

Question: What about the TGI (COLO 205 colon) of the same compound?
Answer: > 100 µM

Question: What about the GI50 (HCT-15 colon) of the same compound?
Answer: 1.93 µM

Question: And the TGI (HCT-15 colon)?
Answer: > 100 µM

Question: What about the GI50 (DU-145 prostate) of the same compound?
Answer: 5.44 µM

Question: And the TGI (DU-145 prostate)?
Answer: > 57.9 µM

Question: What about the GI50 (NCI-H460 lung) of the same compound?
Answer: 4.55 µM

Question: What about the TGI (NCI-H460 lung) of the same compound?
Answer: > 100 µM

Question: And the GI50 (SK-MEL-28 melanoma)?
Answer: 6.42 µM

Question: What about the TGI (SK-MEL-28 melanoma) of the same compound?
Answer: > 100 µM

Question: What about the GI50 (HOP-62 NSCLC) of the same compound?
Answer: 6.82 µM

Question: What about the TGI (HOP-62 NSCLC) of the same compound?
Answer: 39.4 µM

Question: What about the GI50 (KM12 colon) of the same compound?
Answer: 3.28 µM

Question: And the TGI (KM12 colon)?
Answer: > 100 µM

Question: What about the GI50 (UACC-257 melanoma) of the same compound?
Answer: > 26.2 µM

Question: And the TGI (UACC-257 melanoma)?
Answer: > 100 µM

Question: What about the GI50 (SK-MEL-5 melanoma) of the same compound?
Answer: 3.59 µM

Question: And the TGI (SK-MEL-5 melanoma)?
Answer: > 81.6 µM

Question: And the GI50 (K-562 leukemia)?
Answer: 0.703 µM

Question: What about the TGI (K-562 leukemia) of the same compound?
Answer: > 100 µM

Question: What about the GI50 (PC-3 prostate) of the same compound?
Answer: 4.02 µM

Question: And the TGI (PC-3 prostate)?
Answer: 28.4 µM

Question: What about the GI50 (RPMI-8226 leukemia) of the same compound?
Answer: 4.26 µM

Question: And the TGI (RPMI-8226 leukemia)?
Answer: > 100 µM

Question: And the GI50 (RXF 393 renal)?
Answer: 5.65 µM

Question: What about the TGI (RXF 393 renal) of the same compound?
Answer: 50.8 µM

Question: What about the GI50 (NCI-H23 lung) of the same compound?
Answer: 15.2 µM

Question: What about the TGI (NCI-H23 lung) of the same compound?
Answer: > 100 µM

Question: And the GI50 (M14 melanoma)?
Answer: 3.18 µM

Question: And the TGI (M14 melanoma)?
Answer: 99.5 µM

Question: What about the GI50 (SN12C renal) of the same compound?
Answer: 11.1 µM

Question: What about the TGI (SN12C renal) of the same compound?
Answer: > 100 µM

Question: And the GI50 (LOX IMVI melanoma)?
Answer: 5.68 µM

Question: And the TGI (LOX IMVI melanoma)?
Answer: > 100 µM

Question: What about the GI50 (SR leukemia) of the same compound?
Answer: 0.61 µM

Question: And the TGI (SR leukemia)?
Answer: > 88.1 µM

Question: What about the GI50 (T-47D breast) of the same compound?
Answer: 8.69 µM

Question: What about the TGI (T-47D breast) of the same compound?
Answer: 66.8 µM

Question: And the GI50 (IGROV1 ovarian)?
Answer: 14.1 µM

Question: And the TGI (IGROV1 ovarian)?
Answer: > 100 µM

Question: And the GI50 (UO-31 renal)?
Answer: 32.2 µM

Question: What about the TGI (UO-31 renal) of the same compound?
Answer: > 100 µM

Question: And the GI50 (NCI-H522 lung)?
Answer: 12.7 µM

Question: What about the TGI (NCI-H522 lung) of the same compound?
Answer: > 100 µM

Question: And the GI50 (OVCAR-8 ovarian)?
Answer: 9.66 µM

Question: What about the TGI (OVCAR-8 ovarian) of the same compound?
Answer: > 100 µM

Question: What about the GI50 (MDA-MB-435) of the same compound?
Answer: 0.322 µM

Question: And the TGI (MDA-MB-435)?
Answer: 1.65 µM

Question: And the GI50 (TK-10 renal)?
Answer: 11.8 µM

Question: What about the TGI (TK-10 renal) of the same compound?
Answer: 50.2 µM

Question: What about the GI50 (CAKI-1 renal) of the same compound?
Answer: 9.52 µM

Question: What about the TGI (CAKI-1 renal) of the same compound?
Answer: > 100 µM

Question: And the GI50 (MCF7 breast)?
Answer: 1.39 µM

Question: What about the TGI (MCF7 breast) of the same compound?
Answer: > 100 µM

Question: And the GI50 (HL-60(TB) leukemia)?
Answer: 3.22 µM

Question: What about the TGI (HL-60(TB) leukemia) of the same compound?
Answer: > 100 µM

Question: And the GI50 (SK-MEL-2 melanoma)?
Answer: 6.69 µM

Question: What about the TGI (SK-MEL-2 melanoma) of the same compound?
Answer: 56.4 µM

Question: What about the GI50 (OVCAR-3 ovarian) of the same compound?
Answer: 4.27 µM

Question: And the TGI (OVCAR-3 ovarian)?
Answer: > 49.3 µM

Question: And the GI50 (SF-539 CNS)?
Answer: 4 µM

Question: And the TGI (SF-539 CNS)?
Answer: > 41.9 µM

Question: What about the GI50 (MDA-MB-231 breast) of the same compound?
Answer: 12.2 µM

Question: And the TGI (MDA-MB-231 breast)?
Answer: > 100 µM

Question: What about the GI50 (HS 578T breast) of the same compound?
Answer: 6.23 µM

Question: What about the TGI (HS 578T breast) of the same compound?
Answer: 96.9 µM

Question: What about the GI50 (OVCAR-4 ovarian) of the same compound?
Answer: 3.46 µM

Question: What about the TGI (OVCAR-4 ovarian) of the same compound?
Answer: > 46.6 µM

Question: What about the GI50 (MOLT-4 leukemia) of the same compound?
Answer: 6.7 µM

Question: And the TGI (MOLT-4 leukemia)?
Answer: > 100 µM

Question: And the GI50 (UACC-62 melanoma)?
Answer: 3.2 µM

Question: And the TGI (UACC-62 melanoma)?
Answer: > 100 µM

Question: And the GI50 (HOP-92 NSCLC)?
Answer: 3.31 µM

Question: What about the TGI (HOP-92 NSCLC) of the same compound?
Answer: 25.6 µM

Question: What about the GI50 (HCC-2998 colon) of the same compound?
Answer: > 61.2 µM

Question: And the TGI (HCC-2998 colon)?
Answer: > 100 µM

Question: And the GI50 (SNB-75 CNS)?
Answer: 3.47 µM

Question: And the TGI (SNB-75 CNS)?
Answer: 18.1 µM

Question: What about the GI50 (U251 CNS) of the same compound?
Answer: 6.05 µM

Question: And the TGI (U251 CNS)?
Answer: 37.6 µM

Question: What about the GI50 (786-0 renal) of the same compound?
Answer: 13.7 µM

Question: What about the TGI (786-0 renal) of the same compound?
Answer: 44.8 µM

Question: And the GI50 (CCRF-CEM leukemia)?
Answer: 3.4 µM

Question: What about the TGI (CCRF-CEM leukemia) of the same compound?
Answer: > 100 µM

Question: What about the GI50 (HT29 colon) of the same compound?
Answer: 3.35 µM

Question: And the TGI (HT29 colon)?
Answer: > 100 µM
